Laboratory results taken from patent US8637013B2, “Treatment of drug-related side effect and tissue damage by targeting the CD24-HMGB1-Siglec10 axis” (The Regents of The University of Michigan, priority 2009, dated 2014).
No end group written: not given here.

Legend:
[1] = test system: AAP-induced liver damage in WT B6 mice; assay: AAP-induced liver damage in WT mice treated with CD24Fc; type: in vivo; settings: AAP 16 mg/mouse, 5 hours after AAP, vs control IgG Fc
HMGB1 [2] = target: T1, HMGB1 (Homo sapiens, UniProt P09429); assay: Co-immunoprecipitation of HMGB1 with CD24-Fc; type: binding; settings: vs control IgG-Fc; cation-dependent
T1 construct: the full-length HMGB-1 expression vector was transfected into TSA cells; FLAG; made in house; host or cells: TSA cells (purified protein)
T1 sequence (P09429 1-215): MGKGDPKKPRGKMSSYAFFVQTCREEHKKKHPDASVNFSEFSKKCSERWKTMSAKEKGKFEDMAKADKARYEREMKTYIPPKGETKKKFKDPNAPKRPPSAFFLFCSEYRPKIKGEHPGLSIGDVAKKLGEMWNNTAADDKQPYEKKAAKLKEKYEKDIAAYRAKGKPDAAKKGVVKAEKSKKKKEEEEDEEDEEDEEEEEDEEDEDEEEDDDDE

HMGB1 [3] = assay: Co-immunoprecipitation of HMGB1 with CD24-Fc; type: binding, human; settings: FLAG-tagged constructs in COS7 cell lysates
[4] = test system: sialidase activity in the sera of sepsis mice; assay: Serum sialidase activity of CLP mice (Amplex Red Neuraminidase assay kit); type: biochemical, mouse; settings: sera from CLP mice mixed with inhibitors prior to the assay
[5] = target: T2, CD24-Siglec 10 interaction (Homo sapiens, UniProt Q96LC7); assay: Inhibition of CD24-Siglec 10 interaction by sialosides (microplate binding assay); settings: for Inhibition of CD24-Siglec 10 interaction: Siglec 10Fc preincubated with sialoside, then added to plate-bound CD24Fc
T2 construct: Recombinant protein consisting of human IgG Fc and extracellular domains of Siglec 10; purchased R&D Systems
T2 sequence (Q96LC7 17-550 limits assumed): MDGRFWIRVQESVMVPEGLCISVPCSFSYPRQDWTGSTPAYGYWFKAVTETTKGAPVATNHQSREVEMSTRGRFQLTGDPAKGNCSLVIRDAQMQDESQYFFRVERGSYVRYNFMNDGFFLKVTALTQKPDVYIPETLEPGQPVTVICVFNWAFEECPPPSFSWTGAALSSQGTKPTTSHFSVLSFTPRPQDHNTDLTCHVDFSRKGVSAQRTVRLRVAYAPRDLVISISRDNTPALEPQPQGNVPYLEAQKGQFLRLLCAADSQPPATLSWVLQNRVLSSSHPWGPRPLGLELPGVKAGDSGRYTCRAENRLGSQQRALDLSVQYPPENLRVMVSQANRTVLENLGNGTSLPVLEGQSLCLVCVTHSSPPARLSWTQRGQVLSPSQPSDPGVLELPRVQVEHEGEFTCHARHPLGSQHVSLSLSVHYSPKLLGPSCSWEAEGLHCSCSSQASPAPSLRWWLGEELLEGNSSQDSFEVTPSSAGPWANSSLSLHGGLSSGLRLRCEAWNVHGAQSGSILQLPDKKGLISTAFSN

## CD24Fc: fusion protein that binds to HMGB1 and Siglec 10 (SETTTGTSSNSSQSTSNSGLAPNPTNATTK; not fully specified (C-terminus); also: fused to dimerising Fc (not given here))
[1]
  Inflammatory cytokines in serum (IL-6, IL-10, MCP-1, IFN-γ, TNF-α): massive reduction
HMGB1 [2]
  Coimmunoprecipitation of recombinant HMGB-1: specifically coimmunoprecipitated
HMGB1 [3]
  Immunoprecipitation of box A-containing HMGB1 mutant: not the box A-containing mutant
  Immunoprecipitation of full length HMGB1 and box B-containing mutant: immunoprecipitated

## CC(=O)N[C@@H]1C(O)C=C(C(=O)O)OC1[C@H](O)[C@H](O)CO (stereo partly drawn) [Compound 1, 2,3-dehydro-2-deoxy-N-acetylneuraminic acid]
[4]
  Inhibition of sialidase activity in the serum of sepsis mice: minimal effect

## O=C(CO)N[C@H]1[C@H]([C@H](O)[C@H](O)CO)OC(C(=O)O)=C[C@@H]1O [Neu5Gc2en, 2,3-dehydro-2-deoxy-N-glycolylneuraminic acid]
[4]
  Inhibition of sialidase activity in the serum of sepsis mice: partial inhibition

## CC(=O)N[C@H]1[C@H]([C@H](O)[C@H](O)CO)O[C@@](O[C@H]2[C@@H](O)[C@@H](CO)O[C@@H](O[C@H]3[C@H](O)[C@@H](O)C(O)O[C@@H]3CO)[C@@H]2O)(C(=O)O)C[C@@H]1O (stereo partly drawn) [Neu5Acα2-3Lac]
[5]
  Inhibition of CD24-Siglec 10 interaction: efficient inhibition

## CC(=O)N[C@H]1[C@H]([C@H](O)[C@H](O)CO)O[C@@](OC[C@H]2O[C@@H](O[C@H]3[C@H](O)[C@@H](O)C(O)O[C@@H]3CO)[C@H](O)[C@@H](O)[C@H]2O)(C(=O)O)C[C@@H]1O (stereo partly drawn) [Neu5Acα2-6Lac]
[5]; 2-6 versus 2-3 linked sialoside
  Relative potency in inhibiting CD24-Siglec 10 interaction: more potent
[5]
  Inhibition of CD24-Siglec 10 interaction: efficient inhibition
